Data published in patent US20250304537A1 (Repare Therapeutics Inc., priority 2022, published 2025).
pIC50: −log10 of the molar value. Like-named read-outs stand apart in the source and are kept apart here.

System: PKMYT1 (CDK1 pThr14) in FUOV1 cells
Assay: PKMYT1 cell-based activity assay, CDK1 pThr14 AlphaLISA in FUOV1 cells
Details: read-out: FUOV-1 CDK1 pThr14 IC50
Method: To determine compound IC50 (PKMYT1 cell-based activity assay, CDK1 pThr14 AlphaLISA), FUOV1 cells were plated into a 96-well TC-treated culture plate at 50000 cells/well in a final volume of 100 μL of media. The plates were then allowed to equilibrate in a biological safety cabinet for 30 minutes before being placed in a humidified incubator at 37 C and 5% CO2 overnight. The next day, 2 μL of PKMYT1 inhibitors or DMSO were diluted in 400 μL of warmed culture media in a 96-well block using a Biomek FX liquid handler. Compounds were mixed in media and then 25 μL was dispensed into each well of the 96-well cell plate. Plates were centrifuged at 300 g for 10 seconds and then placed in the incubator for 2 hours. After the 2-hour incubation with compound, media was removed via aspiration using a multichannel pipette. 30 μL of 1× AlphaLISA lysis buffer (Perkin Elmer) supplemented with protease and phosphatase inhibitors as well as 1 mM PMSF, was added to each well. Plates were rotated at 500 g for 20 minutes to facilitate lysis. Plates were then sealed with aluminum foil and frozen at −80° C. for at least 1 hour. Lysates were thawed at 37° C. for 10 minutes, then 10 μL of each lysate was transferred in duplicate to a white 384-well assay plate. Antibody mixture was prepared in 1× AlphaLISA assay buffer (Perkin Elmer) containing antibodies (5 nM final concentration for rabbit pThr14-CDK1 from Abcam #ab58509 and mouse total CDK1 from ThermoFisher Scientific #33-1800). 5 μL of antibody mixture was added to each well of the assay plate. The assay plate was sealed and stored at 4° C. overnight. The next day, AlphaLISA bead mixture (Perkin Elmer) was prepared in 1× AlphaLISA assay buffer. Anti-rabbit IgG Acceptor (Perkin Elmer #AL104C) and anti-mouse IgG Donor beads (Perkin Elmer #AS104D) were prepared to a concentration of 80 μg/ml in assay buffer. 5 μL of bead mixture was added to each well of the assay plate (20 μg/ml final concentration for each bead). The plate was protected from light and incubated for 2 hours at room temperature. After a 2-hour incubation with beads, the plate was read using the Perkin Elmer EnVision Multimode plate reader with excitation at 680 nm and emission at 615 nm.

| pIC50 (2 h, 2 h compound incubation) | pIC50 (2 h, 2 hours with compound) | SMILES | also measured |
| --- | --- | --- | --- |
|  | 7.92 | Cc1ccc2[nH]ncc2c1-c1nc(-c2ccc(F)nc2Nc2ncccc2C#N)nc(C(N)=O)c1N [Compound 934] |  |
|  | 7.29 | Cc1ccc2[nH]ncc2c1-c1nc(-c2ccc(F)cc2N[C@H]2C[C@H](O)C2)nc(C(N)=O)c1N [Compound 906] |  |
|  | 7.29 | [2H]C([2H])([2H])c1ccc2[nH]ncc2c1-c1nc(-c2ccc(Cl)nc2Nc2ncccn2)nc(C(N)=O)c1N [Compound 946] |  |
|  | 8.30 | Cc1ccc(F)c(Nc2ncccc2-c2nc(C(N)=O)c(N)c(-c3c(Cl)ccc4[nH]ncc34)n2)n1 [Compound 798] |  |
|  | 6.91 | Cc1ccc2n[nH]cc2c1-c1nc(-c2cc(F)cnc2N[C@H]2C[C@](O)(C(F)F)C2)nc(C(N)=O)c1N [Compound 897] |  |
|  | 6.70 | Cc1ccc2[nH]ncc2c1-c1nc(-c2cn(C(F)(F)F)nc2NC2CCOCC2)nc(C(N)=O)c1N [Compound 910] |  |
|  | 6.13 | Cc1ccc2[nH]ncc2c1-c1nc(-c2ccc(Cl)nc2NC2CC(F)(F)C2)nc(C(N)=O)c1N [Compound 802] |  |
|  | 8.30 | Cc1ccc(F)c(Nc2nc(F)ccc2-c2nc(C(N)=O)c(N)c(-c3c(C)c(F)cc4[nH]ncc34)n2)n1 [Compound 850] |  |
|  | 8.40 | N#Cc1cccnc1Nc1cc(F)ccc1-c1nc(C(N)=O)c(N)c(-c2c(F)ccc3[nH]ncc23)n1 [Compound 968] |  |
|  | 7.85 | Cc1ccc2[nH]ncc2c1-c1nc(-c2ccc(C(F)F)nc2Nc2ncccc2F)nc(C(N)=O)c1N [Compound 931] |  |
|  | 7.48 | Cc1ccc2[nH]ncc2c1-c1nc(-c2cc(F)cnc2N[C@H]2C[C@@H]3CC[C@H]2O3)nc(C(N)=O)c1N [Compound 899] |  |
|  | 7.40 | NC(=O)c1nc(-c2ccc(C(F)F)nc2Nc2ncccc2F)nc(-c2c(F)ccc3[nH]ncc23)c1N [Compound 970] |  |
|  | 6.18 | Cc1ccc2[nH]ncc2c1-c1nc(-c2cn(C)nc2Nc2ncccn2)nc(C(N)=O)c1N [Compound 926] |  |
|  | 7.36 | Cc1ccc2[nH]ncc2c1-c1nc(-c2cc(F)cnc2N[C@@H]2CC[C@@H](O)C2)nc(C(N)=O)c1N [Compound 851] |  |
| 8.30 |  | Cc1ccc2[nH]ncc2c1-c1nc(-c2ccc(Cl)nc2Nc2ncccc2F)nc(C(N)=O)c1N [Compound 781] |  |
|  | 7.66 | Cc1c(F)cc2[nH]ncc2c1-c1nc(-c2cc(F)cnc2N[C@H]2CCOC2)nc(C(N)=O)c1N [Compound 847] |  |
|  | 7.49 | N#Cc1ccc(-c2nc(C(N)=O)c(N)c(-c3c(Cl)ccc4[nH]ncc34)n2)c(Nc2ncccn2)c1 [Compound 958] |  |
|  | 6.77 | Cc1cc(F)c2[nH]ncc2c1-c1nc(-c2cc(F)cnc2N[C@H]2CC[C@@](C)(O)CC2)nc(C(N)=O)c1N [Compound 875] |  |
|  | 8.30 | [2H]C([2H])([2H])c1ccc2[nH]ncc2c1-c1nc(-c2ccc(F)nc2Nc2ncccc2F)nc(C(N)=O)c1N [Compound 930] |  |
|  | 6.69 | Cc1ccc2[nH]ncc2c1-c1nc(-c2ccc(F)nc2Nc2cccnc2F)nc(C(N)=O)c1N [Compound 917] |  |
|  | 7.06 | Cc1c(F)cc2[nH]ncc2c1-c1nc(-c2ccc(F)nc2Nc2nccnc2C(F)F)nc(C(N)=O)c1N [Compound 854] |  |

The next lines start with the compound.

| SMILES | pIC50 (2 h, 2 h compound incubation) | pIC50 (2 h, 2 hours with compound) | also measured |
| --- | --- | --- | --- |
| Cc1ccc2[nH]ncc2c1-c1nc(-c2cccnc2Nc2cccc(Cl)c2)nc(C(N)=O)c1N [Compound 638] | 6.15 |  |  |
| Cc1ccc2[nH]ncc2c1-c1nc(-c2cccnc2NC[C@H]2CCOC2)nc(C(N)=O)c1N [Compound 594] | 7.44 |  |  |
| Cc1ccc2[nH]ncc2c1-c1nc(-c2ccc(Cl)nc2Nc2ncccn2)nc(C(N)=O)c1N [Compound 759] | 7.48 |  |  |
| Cc1ccc(-c2nc(C(N)=O)c(N)c(-c3c(C)ccc4[nH]ncc34)n2)c(Nc2ncccc2C)n1 [Compound 687] | 8.52 |  |  |
| Cc1ccc2[nH]ncc2c1-c1nc(-c2cc(F)cnc2NCC(F)(F)F)nc(C(N)=O)c1N [Compound 747] | 7.06 |  |  |
| Cc1ccc2[nH]ncc2c1-c1nc(-c2ccncc2NC(=O)OC(C)(C)C)nc(C(N)=O)c1N [Compound 495] | 6.70 |  |  |
| Cc1ccnc(Nc2ncccc2-c2nc(C(N)=O)c(N)c(-c3c(C)ccc4[nH]ncc34)n2)n1 [Compound 565, 5-amino-6-(5-methyl-1H-indazol-4-yl)-2-(2-((4-methylpyrimidin-2-yl)amino)pyridin-3-yl)pyrimidine-4-carboxamide] | 7.15 |  |  |
| Cc1ccc2[nH]ncc2c1-c1cc2c(oc3ccc(OC4CCOCC4)nc32)c(C(N)=O)c1N [Compound 635] | 6.40 |  |  |
| Cc1ccncc1Nc1cc(F)ccc1-c1nc(C(N)=O)c(N)c(-c2c(C)ccc3[nH]ncc23)n1 [Compound 664] | 7.39 |  |  |
| Cc1ccc2[nH]ncc2c1-c1nc(-c2cccnc2Nc2ccc(F)nc2F)nc(C(N)=O)c1N [Compound 641] | 6.41 |  |  |
| Cc1ccc2[nH]ncc2c1-c1nc(-c2ccc(F)cc2NS(C)(=O)=O)nc(C(N)=O)c1N [Compound 512] | 7.28 |  |  |
| [2H]C([2H])([2H])c1ccc2[nH]ncc2c1-c1nc(-c2ccc(C3CC3)nc2Nc2ncccc2F)nc(C(N)=O)c1N [Compound 47] |  |  | pIC50 (2 h, 2 h incubation): 7.89 |
| Cc1ccc2[nH]ncc2c1-c1nc(-c2cc(F)cnc2NC2CCC(F)(F)CC2)nc(C(N)=O)c1N [Compound 731] | 6.11 |  |  |
| Cc1ccc(C#N)nc1Nc1ncccc1-c1nc(C(N)=O)c(N)c(-c2c(C)ccc3[nH]ncc23)n1 [Compound 740] | 8.15 |  |  |
| Cc1ccc2[nH]ncc2c1-c1nc(-c2cccnc2Nc2nccnc2Cl)nc(C(N)=O)c1N [Compound 763] | 7.54 |  |  |
| COc1ccc(-c2nc(C(N)=O)c(N)c(-c3c(C)ccc4[nH]ncc34)n2)c(Nc2ncccn2)c1 [Compound 636] | 7.01 |  |  |
| Cc1ccc2[nH]ncc2c1-c1nc(-c2cc(F)cnc2N[C@H]2CC[C@@](C)(O)CC2)nc(C(N)=O)c1N [Compound 723] | 7.66 |  |  |
| Cc1ccc2[nH]ncc2c1-c1nc(-c2cc(F)c(F)cc2NC(=O)C(C)(C)C)nc(C(N)=O)c1N [Compound 487] | 7.17 |  |  |
| Cc1ccc2[nH]ncc2c1-c1cc2c(oc3ccc(F)nc32)c(C(N)=O)c1N [Compound 557] | 6.38 |  |  |
| Cc1ccc2[nH]ncc2c1-c1nc(-c2cccnc2NCCN2CCOCC2)nc(C(N)=O)c1N [Compound 703] | 6.17 |  |  |
| CCc1cccnc1Nc1ncccc1-c1nc(C(N)=O)c(N)c(-c2c(C)ccc3[nH]ncc23)n1 [Compound 730] | 7.72 |  |  |
| Cc1ccc2[nH]ncc2c1-c1nc(-c2ccc(F)cc2Nc2cccc(F)c2)nc(C(N)=O)c1N [Compound 663] | 6.44 |  |  |
| Cc1ccc2[nH]ncc2c1-c1nc(-c2ccc(F)cc2Nc2nccnc2C#N)nc(C(N)=O)c1N [Compound 701] | 7.60 |  |  |
| Cc1cccnc1Nc1cc(C#N)ccc1-c1nc(C(N)=O)c(N)c(-c2c(C)ccc3[nH]ncc23)n1 [Compound 754] | 7.77 |  |  |
| Cc1cc(Nc2cc(F)ccc2-c2nc(C(N)=O)c(N)c(-c3c(C)ccc4[nH]ncc34)n2)ncn1 [Compound 524] | 7.16 |  |  |
| Cc1ccc2[nH]ncc2c1-c1nc(-c2cc(F)cnc2N[C@H]2C[C@](C)(O)C2)nc(C(N)=O)c1N [Compound 748] | 7.40 |  |  |
| Cc1cnc(C)c(Nc2cc(F)ccc2-c2nc(C(N)=O)c(N)c(-c3c(C)ccc4[nH]ncc34)n2)n1 [Compound 719] | 7.26 |  |  |
| Cc1ccc2[nH]ncc2c1-c1nc(-c2cc(F)cnc2N[C@@H]2C[C@H]3CC[C@@H]2O3)nc(C(N)=O)c1N [Compound 836] |  |  | pIC50 (2 hours with compound): 7.82 |
| Cc1ccc2[nH]ncc2c1-c1nc(-c2cc(F)ccc2Nc2cccnn2)nc(C(N)=O)c1N [Compound 489] | 7.66 |  |  |
